Measurements from patent US9833520B2, “Labeled, non-peptidic, multivalent integrin antagonist compounds; methods for synthesis and uses thereof” (The Methodist Hospital Research Institute, priority 2011, dated 2017).
“And” between values parts separate entries of the source, which are not always exact repeats. Equal entries are not always repeated. “Also recorded” adds a separate entry of the source.

Key:
B16F10 melanoma tumor = test: In vivo antitumor efficacy in B16F10 melanoma tumor-bearing mice; conditions: for average tumor volume / tumor volume against control group (PBS = 100%): 14 days; for tumor volume against control group (PBS = 100%): 30 mg/kg i.p. every 12 hours; for reduction in tumor mass compared to control: 30 mg/kg, endpoint
Description: All animal procedures were approved by appropriate Animal Care and Use Committee. The therapeutic test for antitumor efficacy of IA multivalent compounds was evaluated using tumor-bearing mice, which were prepared by bilateral subcutaneous injection in the thighs of nu/nu female mice (6 weeks old; 20-25 g). The mouse melanoma cancer cell line B16F10 was obtained from Caliper and tested negative for rodent pathogens. The cells were maintained in vitro as described above. The mice were inoculated with suspensions of 1×10^6 B16F10 cells in 100 μL complete medium (10% FBS added). Three days after subcutaneous inoculation (the tumor diameter was approximately 3-5 mm, the tumor volume was approximately 50 to 100 mm^3), tumor-bearing mice (n=7 per group) were injected intraperitoneally (i.p.) with each IA compound (monomer, dimer, or trimer) in PBS or PBS alone for control group. All compounds were serially diluted with PBS, and were given 2 times per day (every 12 hr) at a dose of 100 μL of 7.5, 15, 30 mg/kg per injection for 14 days. […] This study design was deliberately chosen to highlight the effect of multivalency. The tumor size was calculated as a×b^2/2, where ‘a’ is the largest and ‘b’ the smallest diameter. In addition, the weight of the mice and the tumors were recorded after harvesting.
A tumor growth model was used to isolate and interpret the effects of pharmacological dose (pharmacophore) and multivalency. This was done using the R software package ‘geepack’ (Højsgaard et al., 2006; Team et al., 2012). The tumor burden (sum of the volumes of left and right tumors) for each animal was first normalized by dividing by the starting volume on the first day of treatment, then taking the logarithm to linearize the data. The pharmacological dose was decoupled from the molecular valency, N, for this model by defining the pharmacophore or pharmacological dose (PD) as PD=N×MD, where MD is the molar dose. The pharmacological excess (compared to monomer) dose (ED) due to multivalency is then: ED=PD-MD=MD×(N−1). The data was fit to a linear model:
All animal procedures were approved by the appropriate regulatory agencies. The therapeutic test for antitumor efficacy of IA multivalent compounds was evaluated using tumor-bearing mice that were prepared by the subcutaneous injection in the dorsa of nu/nu female mice (6 weeks old; 20-25 g). The mouse melanoma cancer cell line B16F10 was obtained from Caliper, and tested negative for rodent pathogens. The cells were maintained in vitro as described above. Mice were inoculated with a suspension of 1×10^6 B16F10 cells in 100 μL complete medium (10% FBS added). Four days after subcutaneous inoculation (the tumor diameter was approximately […], the tumor volume was approximately 50 to 100 mm^3), tumor-bearing mice (n=7 per group) were inoculated intraperitoneally (i.p.) with each IA compound (Monomer, Dimer, Trimer) in PBS or PBS alone for control group. All compounds were serially diluted with PBS and were given 2 times per day (every 12 hr) so that compounds doses would be 100 μL of 7.5, 15, 30 mg/kg (maximum tolerated dose) for 14 days. The tumor size was calculated as: a×b2/2, where a is the largest and b the smallest diameter.

B16F10 cells = test: In vitro cytotoxicity (MTT) assay, B16F10; format: cell-based, mouse; conditions: B16F10, 100 μg/mL, 24 hr
Description: For cell cytotoxicity assay, the cells were then seeded into 96-well flat-bottomed tissue-culture plates at 1×10^4 cells/well and incubated for 24 hr in humidified atmosphere of 5% (vol./vol.) CO2 at 37° C. in the presence of each compound. The multivalent compound (monomer, dimer, and trimer) sample solutions were diluted with culture medium (1% FBS added) to obtain concentrations in the range of 0.1-100 μg/mL for each compound. The cytotoxic effects of monomer, dimer and trimer compounds were evaluated by adding 100 μL of each sample in 100 μL culture medium to each well. After 24-hrs' incubation, cell viability was evaluated by mitochondrial conversion of 3-(4,5-dimethylthiazol-2-yl)-2,5-diphenyl tetrazolium bromide (MTT assay) (Allison et al., 1985).
Mouse melanoma B16F10 cells (Caliper.CO,) and human melanoma M21 cells were maintained in RPMI 1640 (Caliper) containing 10% (vol./vol.) fetal bovine serum (Invitrogen, Ontario, Canada), 100 U/mL penicillin G, and 100 μg/mL streptomycin for general cell growing condition. For cell cytotoxicity assay, the cells were then seeded into 96-well flat-bottomed tissue-culture plates at 1×10^4 cells/well and incubated for 24 hr or 72 hr in humidified atmosphere of 5% (vol./vol.) CO2 at 37° C. in the presence of each compound. The multivalent compounds (monomer, dimer, trimer) sample solutions were diluted with culture medium (1% FBS added) to obtain the concentration of each compound in the range of 0.1 to 100 μg/mL. The cytotoxic effects of monomer, dimer and trimer compounds solution were evaluated by adding a mixture of 100 μL of each sample and 100 μL of culture medium to each well. After 24-hr or 72-hr incubation, cell viability was evaluated by mitochondrial conversion of 3-(4,5-dimethylthiazol-2-yl)-2,5-diphenyl tetrazolium bromide (MTT assay).

O=C(NCCS(=O)(=O)N[C@@H](CNC(=O)c1ccc(OCCNC2=NCCCN2)cc1)C(=O)O)OCCN(CCOC(=O)NCCS(=O)(=O)N[C@@H](CNC(=O)c1ccc(OCCNC2=NCCCN2)cc1)C(=O)O)CCOC(=O)NCCS(=O)(=O)N[C@@H](CNC(=O)c1ccc(OCCNC2=NCCCN2)cc1)C(=O)O [IA trimer]
average tumor volume (B16F10 melanoma tumor; 15 mg/kg i.p. twice per day): 2000 mm^3 | average tumor volume as fraction of PBS-treated control mice (B16F10 melanoma tumor; 15 mg/kg, 14 days after start of treatment): less than ⅓; also recorded: less than one-third | tumor volume against control group (PBS = 100%) (B16F10 melanoma tumor): 32.05% | average tumor volume (B16F10 melanoma tumor; 30 mg/kg i.p. twice per day): 1800 (s.d. 800) mm^3 and 1800 mm^3 | reduction in tumor mass compared to control (B16F10 melanoma tumor): 71±7% | survival (B16F10 melanoma tumor; 7.5, 15, 30 mg/kg twice per day): all of animals survived for at least 2 weeks | average tumor volume (B16F10 melanoma tumor; Example 3, dose not stated): 2000 mm^3 | average tumor size smaller than in the IA-dimer group (B16F10 melanoma tumor; compared to IA-dimer group): 1.7 fold | average tumor size smaller than in the IA-monomer group (B16F10 melanoma tumor; compared to IA-monomer group): 2.3 fold | cell viability (B16F10 cells): ~80%

NCCS(=O)(=O)N[C@@H](CNC(=O)c1ccc(OCCNC2=NCCCN2)cc1)C(=O)O [IA, 4-[2-(3,4,5,6-tetrahydropyrimidine-2-ylamino)ethyloxy]benzoyl-2-(S)-aminoethylsulfonyl-amino-β-alanine]
tumor volume against control group (PBS = 100%) (B16F10 melanoma tumor): 59.29% | average tumor volume (B16F10 melanoma tumor; 30 mg/kg i.p. twice per day): 3300 (s.d. 1200) mm^3 | reduction in tumor mass compared to control (B16F10 melanoma tumor): 36±9% | average tumor volume (B16F10 melanoma tumor; Example 3, dose not stated): 5000 mm^3 | cell viability (B16F10 cells; listed as IA-monomer): smaller and less significant; also recorded: no significant changes of cell viability

NC(CCCCCC(=O)NCCS(=O)(=O)N[C@@H](CNC(=O)c1ccc(OCCNC2=NCCCN2)cc1)C(=O)O)C(=O)NCCS(=O)(=O)N[C@@H](CNC(=O)c1ccc(OCCNC2=NCCCN2)cc1)C(=O)O (some centres unmarked) [bivalent IA]
tumor volume against control group (PBS = 100%) (B16F10 melanoma tumor): 45.33% | average tumor volume (B16F10 melanoma tumor; 30 mg/kg i.p. twice per day): 2500 (s.d. 1000) mm^3 | reduction in tumor mass compared to control (B16F10 melanoma tumor; listed as dimer): 49±8% | average tumor volume (B16F10 melanoma tumor; Example 3, dose not stated): 3000 mm^3 | cell viability (B16F10 cells; listed as IA-dimer): smaller and less significant; also recorded: no significant changes of cell viability
